Measured values as given in US9085598B2, “Compounds targeting the cell invasion protein complex, their pharmaceutical compositions and methods of use thereof” (THE ROYAL INSTITUTE FOR THE ADVANCEMENT OF LEARNING/MCGILL …, priority 2011, dated 2015).

Tests used:
Experiment in all cases: In vitro kinase activity (Kinase-Glo luminescence)
Assay type in all cases: biochemical
FLT3 = target: T1, FLT3 (Homo sapiens, UniProt P36888)
T1 construct: Human recombinant full-length kinases were incubated in kinase buffer
Procedure: (§1) Human recombinant full-length kinases were incubated in kinase buffer containing ATP and substrate (Poly Glu:Tyr) for 4 hours at room temperature with or without the presence of the compounds listed in Table 1 at various concentrations. Remaining ATP in solution was then quantified using the Kinase-Glo-Iuminescence™ kit (Promega).

SGK3 = target: T2, SGK3 (Homo sapiens, UniProt Q96BR1)
T2 construct: Human recombinant full-length kinases were incubated in kinase buffer
Procedure: as §1

FYN = target: T3, FYN (Homo sapiens, UniProt P06241)
T3 construct: Human recombinant full-length kinases were incubated in kinase buffer
Procedure: as §1

FAK = target: T4, FAK (Homo sapiens, UniProt Q05397); conditions: 1 μM; Table 2; read-out: % Inhibition FAK
T4 construct: Human recombinant full-length kinases were incubated in kinase buffer
Procedure: as §1

CDK1/Cyclin B = target: T5, CDK1/Cyclin B (Homo sapiens, UniProt P06493)
T5 construct: Human recombinant full-length kinases were incubated in kinase buffer
Procedure: as §1

FGFR1 = target: T6, FGFR1 (Homo sapiens, UniProt P11362)
T6 construct: Human recombinant full-length kinases were incubated in kinase buffer
Procedure: as §1

ABL1 = target: T7, ABL1 (Homo sapiens, UniProt P00519)
T7 construct: Human recombinant full-length kinases were incubated in kinase buffer
Procedure: as §1

EGFR = target: T8, EGFR (Homo sapiens, UniProt P00533)
T8 construct: Human recombinant full-length kinases were incubated in kinase buffer
Procedure: as §1

SRC = target: T9, SRC (Homo sapiens, UniProt P12931)
T9 construct: Human recombinant full-length kinases were incubated in kinase buffer
Procedure: as §1

VEGFR2 = target: T10, VEGFR2 (Homo sapiens, UniProt P35968)
T10 construct: Human recombinant full-length kinases were incubated in kinase buffer
Procedure: as §1

P38-γ = target: T11, P38-γ (Homo sapiens, UniProt P53778)
T11 construct: Human recombinant full-length kinases were incubated in kinase buffer
Procedure: as §1

DDR1 = target: T12, DDR1 (Homo sapiens, UniProt Q08345)
T12 construct: Human recombinant full-length kinases were incubated in kinase buffer
Procedure: as §1

TRKB = target: T13, TRKB (Homo sapiens, UniProt Q16620)
T13 construct: Human recombinant full-length kinases were incubated in kinase buffer
Procedure: as §1

EPHA1 = target: T14, EPHA1 (Homo sapiens, UniProt P21709)
T14 construct: Human recombinant full-length kinases were incubated in kinase buffer
Procedure: as §1

LYN = target: T15, LYN (Homo sapiens, UniProt P07948)
T15 construct: Human recombinant full-length kinases were incubated in kinase buffer
Procedure: as §1

Aurora A = target: T16, Aurora A (Homo sapiens, UniProt O14965)
T16 construct: Human recombinant full-length kinases were incubated in kinase buffer
Procedure: as §1

MET = target: T17, MET (Homo sapiens, UniProt P08581)
T17 construct: Human recombinant full-length kinases were incubated in kinase buffer
Procedure: as §1

SYK = target: T18, SYK (Homo sapiens, UniProt P43405)
T18 construct: Human recombinant full-length kinases were incubated in kinase buffer
Procedure: as §1

PIM1 = target: T19, PIM1 (Homo sapiens, UniProt P11309)
T19 construct: Human recombinant full-length kinases were incubated in kinase buffer
Procedure: as §1

TIE1 = target: T20, TIE1 (Homo sapiens, UniProt P35590)
T20 construct: Human recombinant full-length kinases were incubated in kinase buffer
Procedure: as §1

INSR = target: T21, INSR (Homo sapiens, UniProt P06213)
T21 construct: Human recombinant full-length kinases were incubated in kinase buffer
Procedure: as §1

YES1 = target: T22, YES1 (Homo sapiens, UniProt P07947)
T22 construct: Human recombinant full-length kinases were incubated in kinase buffer
Procedure: as §1

IKK-ε = target: T23, IKK-ε (Homo sapiens, UniProt Q14164)
T23 construct: Human recombinant full-length kinases were incubated in kinase buffer
Procedure: as §1

PDGFR-β = target: T24, PDGFR-β (Homo sapiens, UniProt P09619)
T24 construct: Human recombinant full-length kinases were incubated in kinase buffer
Procedure: as §1

PAK1 = target: T25, PAK1 (Homo sapiens, UniProt Q13153)
T25 construct: Human recombinant full-length kinases were incubated in kinase buffer
Procedure: as §1

PLK4 = target: T26, PLK4 (Homo sapiens, UniProt O00444)
T26 construct: Human recombinant full-length kinases were incubated in kinase buffer
Procedure: as §1

PKC-α = target: T27, PKC-α (Homo sapiens, UniProt P17252); conditions: Table 2
T27 construct: Human recombinant full-length kinases were incubated in kinase buffer
Procedure: as §1

RPS6KA4 = target: T28, RPS6KA4 (Homo sapiens, UniProt O75676)
T28 construct: Human recombinant full-length kinases were incubated in kinase buffer
Procedure: as §1

IGF1R = target: T29, IGF1R (Homo sapiens, UniProt P08069)
T29 construct: Human recombinant full-length kinases were incubated in kinase buffer
Procedure: as §1

Aurora B = target: T30, Aurora B (Homo sapiens, UniProt Q96GD4)
T30 construct: Human recombinant full-length kinases were incubated in kinase buffer
Procedure: as §1

AKT-1 = target: T31, AKT-1 (Homo sapiens, UniProt P31749); conditions: Table 2
T31 construct: Human recombinant full-length kinases were incubated in kinase buffer
Procedure: as §1

HER2 = target: T32, HER2 (Homo sapiens, UniProt P04626)
T32 construct: Human recombinant full-length kinases were incubated in kinase buffer
Procedure: as §1

T16 sequence (O14965 whole entry): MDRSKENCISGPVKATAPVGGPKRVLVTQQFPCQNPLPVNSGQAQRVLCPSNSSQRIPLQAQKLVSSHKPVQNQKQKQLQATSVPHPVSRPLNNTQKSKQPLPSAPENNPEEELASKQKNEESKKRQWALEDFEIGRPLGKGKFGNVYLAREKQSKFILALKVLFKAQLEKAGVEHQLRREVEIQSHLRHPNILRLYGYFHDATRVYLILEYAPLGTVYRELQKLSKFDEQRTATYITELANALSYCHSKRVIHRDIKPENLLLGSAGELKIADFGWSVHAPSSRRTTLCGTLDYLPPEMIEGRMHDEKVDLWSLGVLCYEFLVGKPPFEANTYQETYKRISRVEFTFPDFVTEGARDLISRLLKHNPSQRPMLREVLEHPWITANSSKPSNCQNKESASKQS
T31 sequence (P31749 whole entry): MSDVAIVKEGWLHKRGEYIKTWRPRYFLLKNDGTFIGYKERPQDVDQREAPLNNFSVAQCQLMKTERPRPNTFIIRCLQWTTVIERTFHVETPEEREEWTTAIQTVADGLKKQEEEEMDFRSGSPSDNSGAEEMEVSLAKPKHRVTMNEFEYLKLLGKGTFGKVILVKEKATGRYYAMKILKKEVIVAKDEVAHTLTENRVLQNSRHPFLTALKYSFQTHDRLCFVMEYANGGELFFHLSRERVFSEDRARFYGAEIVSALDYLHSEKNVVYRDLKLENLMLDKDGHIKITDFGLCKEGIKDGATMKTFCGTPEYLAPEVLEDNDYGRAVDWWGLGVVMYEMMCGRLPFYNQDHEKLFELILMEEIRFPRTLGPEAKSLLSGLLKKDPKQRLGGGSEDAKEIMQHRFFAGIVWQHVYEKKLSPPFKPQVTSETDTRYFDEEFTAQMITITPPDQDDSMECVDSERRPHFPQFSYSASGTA
T4 sequence (Q05397 whole entry): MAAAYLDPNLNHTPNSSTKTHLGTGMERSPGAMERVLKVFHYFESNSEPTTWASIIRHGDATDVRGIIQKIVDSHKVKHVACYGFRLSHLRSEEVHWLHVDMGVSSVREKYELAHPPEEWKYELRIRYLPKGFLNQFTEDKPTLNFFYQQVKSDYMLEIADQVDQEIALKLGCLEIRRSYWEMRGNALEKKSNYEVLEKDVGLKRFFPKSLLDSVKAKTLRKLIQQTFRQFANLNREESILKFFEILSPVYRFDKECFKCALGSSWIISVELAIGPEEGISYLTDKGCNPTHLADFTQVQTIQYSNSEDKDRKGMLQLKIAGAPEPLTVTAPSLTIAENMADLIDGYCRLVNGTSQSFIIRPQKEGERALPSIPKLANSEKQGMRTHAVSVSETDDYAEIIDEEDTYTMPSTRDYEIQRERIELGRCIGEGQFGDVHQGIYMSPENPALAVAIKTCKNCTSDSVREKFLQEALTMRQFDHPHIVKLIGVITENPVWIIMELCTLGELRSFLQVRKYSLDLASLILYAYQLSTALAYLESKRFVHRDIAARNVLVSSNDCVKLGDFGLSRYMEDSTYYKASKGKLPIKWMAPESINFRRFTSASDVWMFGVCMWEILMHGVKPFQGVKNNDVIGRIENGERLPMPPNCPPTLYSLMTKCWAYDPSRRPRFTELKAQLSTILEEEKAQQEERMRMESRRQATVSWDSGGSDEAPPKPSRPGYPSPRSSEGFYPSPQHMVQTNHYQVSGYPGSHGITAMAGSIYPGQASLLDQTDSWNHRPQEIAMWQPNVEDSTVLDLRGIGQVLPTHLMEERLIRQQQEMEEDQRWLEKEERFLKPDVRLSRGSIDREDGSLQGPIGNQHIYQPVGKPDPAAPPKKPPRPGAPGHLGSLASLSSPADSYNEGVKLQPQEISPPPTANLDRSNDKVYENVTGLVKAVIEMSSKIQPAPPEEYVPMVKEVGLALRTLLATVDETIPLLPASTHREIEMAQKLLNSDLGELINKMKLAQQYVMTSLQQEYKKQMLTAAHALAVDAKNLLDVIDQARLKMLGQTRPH
T20 sequence (P35590 22-1138): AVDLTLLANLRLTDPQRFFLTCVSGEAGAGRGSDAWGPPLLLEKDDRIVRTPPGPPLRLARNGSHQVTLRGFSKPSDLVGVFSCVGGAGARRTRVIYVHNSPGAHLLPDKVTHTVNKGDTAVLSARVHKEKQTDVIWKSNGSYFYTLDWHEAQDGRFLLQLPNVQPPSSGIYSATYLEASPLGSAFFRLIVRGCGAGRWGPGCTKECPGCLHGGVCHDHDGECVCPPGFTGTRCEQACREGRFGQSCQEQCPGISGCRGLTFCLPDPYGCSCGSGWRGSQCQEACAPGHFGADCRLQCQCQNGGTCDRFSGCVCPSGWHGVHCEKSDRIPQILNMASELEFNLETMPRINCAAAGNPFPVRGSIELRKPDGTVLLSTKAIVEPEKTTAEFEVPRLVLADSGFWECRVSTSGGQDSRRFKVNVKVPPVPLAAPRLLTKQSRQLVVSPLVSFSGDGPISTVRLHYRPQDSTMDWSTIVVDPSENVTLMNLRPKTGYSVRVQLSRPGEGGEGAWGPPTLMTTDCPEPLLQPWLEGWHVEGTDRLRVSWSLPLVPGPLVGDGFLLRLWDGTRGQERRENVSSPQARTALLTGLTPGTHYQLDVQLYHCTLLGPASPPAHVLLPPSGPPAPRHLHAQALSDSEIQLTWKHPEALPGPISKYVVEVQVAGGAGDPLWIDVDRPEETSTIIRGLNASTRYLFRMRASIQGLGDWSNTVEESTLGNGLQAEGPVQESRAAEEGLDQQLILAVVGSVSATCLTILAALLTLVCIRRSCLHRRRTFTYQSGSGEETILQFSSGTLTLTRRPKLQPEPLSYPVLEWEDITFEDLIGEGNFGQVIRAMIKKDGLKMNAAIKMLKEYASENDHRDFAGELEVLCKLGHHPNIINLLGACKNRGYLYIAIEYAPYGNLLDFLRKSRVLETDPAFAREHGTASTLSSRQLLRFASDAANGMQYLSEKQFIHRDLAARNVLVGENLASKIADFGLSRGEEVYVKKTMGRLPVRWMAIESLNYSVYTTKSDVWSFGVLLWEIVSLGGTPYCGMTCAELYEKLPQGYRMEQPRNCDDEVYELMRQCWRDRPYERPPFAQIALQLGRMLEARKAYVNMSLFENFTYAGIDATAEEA
T9 sequence (P12931 whole entry): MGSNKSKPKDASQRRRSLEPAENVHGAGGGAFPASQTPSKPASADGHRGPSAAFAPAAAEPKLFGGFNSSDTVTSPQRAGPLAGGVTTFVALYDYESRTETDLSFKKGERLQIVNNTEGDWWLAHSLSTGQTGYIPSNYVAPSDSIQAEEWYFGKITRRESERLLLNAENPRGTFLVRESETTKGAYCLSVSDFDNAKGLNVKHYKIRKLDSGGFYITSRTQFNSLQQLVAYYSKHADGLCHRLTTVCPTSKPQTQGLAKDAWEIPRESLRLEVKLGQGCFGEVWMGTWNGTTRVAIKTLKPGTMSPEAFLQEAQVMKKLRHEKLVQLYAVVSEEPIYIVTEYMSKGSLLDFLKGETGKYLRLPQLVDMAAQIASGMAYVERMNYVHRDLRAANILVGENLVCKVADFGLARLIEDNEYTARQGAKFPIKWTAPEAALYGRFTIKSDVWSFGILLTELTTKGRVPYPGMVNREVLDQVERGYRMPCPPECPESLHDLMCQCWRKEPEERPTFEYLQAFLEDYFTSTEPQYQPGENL
T7 sequence (P00519 whole entry): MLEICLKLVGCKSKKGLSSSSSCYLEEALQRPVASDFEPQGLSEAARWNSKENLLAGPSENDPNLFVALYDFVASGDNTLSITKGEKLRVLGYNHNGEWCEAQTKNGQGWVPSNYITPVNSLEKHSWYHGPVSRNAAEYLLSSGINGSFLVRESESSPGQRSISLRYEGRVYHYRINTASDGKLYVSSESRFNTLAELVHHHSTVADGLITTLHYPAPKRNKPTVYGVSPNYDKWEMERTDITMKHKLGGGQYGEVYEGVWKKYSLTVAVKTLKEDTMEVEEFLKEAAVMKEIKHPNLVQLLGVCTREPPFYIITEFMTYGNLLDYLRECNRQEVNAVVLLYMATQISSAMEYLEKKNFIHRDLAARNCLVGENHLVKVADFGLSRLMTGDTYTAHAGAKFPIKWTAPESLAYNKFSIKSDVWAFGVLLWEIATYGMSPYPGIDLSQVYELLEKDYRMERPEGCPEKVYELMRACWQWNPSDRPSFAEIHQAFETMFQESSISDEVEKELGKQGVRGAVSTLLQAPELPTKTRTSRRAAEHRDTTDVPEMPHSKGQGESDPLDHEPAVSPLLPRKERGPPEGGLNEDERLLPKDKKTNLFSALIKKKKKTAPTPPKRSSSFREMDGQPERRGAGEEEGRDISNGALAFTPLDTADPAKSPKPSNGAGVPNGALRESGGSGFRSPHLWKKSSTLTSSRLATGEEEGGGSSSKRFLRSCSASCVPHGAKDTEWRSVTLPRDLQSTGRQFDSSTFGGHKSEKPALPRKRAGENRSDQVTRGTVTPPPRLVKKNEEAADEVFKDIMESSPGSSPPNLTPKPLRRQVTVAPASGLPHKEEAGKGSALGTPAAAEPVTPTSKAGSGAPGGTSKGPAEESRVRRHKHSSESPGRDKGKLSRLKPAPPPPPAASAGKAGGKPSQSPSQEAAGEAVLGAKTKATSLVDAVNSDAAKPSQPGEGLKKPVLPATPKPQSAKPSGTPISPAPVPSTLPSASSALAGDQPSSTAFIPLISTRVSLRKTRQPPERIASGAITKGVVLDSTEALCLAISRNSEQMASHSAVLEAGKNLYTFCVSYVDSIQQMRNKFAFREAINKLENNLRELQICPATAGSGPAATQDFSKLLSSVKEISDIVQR
T30 sequence (Q96GD4 whole entry): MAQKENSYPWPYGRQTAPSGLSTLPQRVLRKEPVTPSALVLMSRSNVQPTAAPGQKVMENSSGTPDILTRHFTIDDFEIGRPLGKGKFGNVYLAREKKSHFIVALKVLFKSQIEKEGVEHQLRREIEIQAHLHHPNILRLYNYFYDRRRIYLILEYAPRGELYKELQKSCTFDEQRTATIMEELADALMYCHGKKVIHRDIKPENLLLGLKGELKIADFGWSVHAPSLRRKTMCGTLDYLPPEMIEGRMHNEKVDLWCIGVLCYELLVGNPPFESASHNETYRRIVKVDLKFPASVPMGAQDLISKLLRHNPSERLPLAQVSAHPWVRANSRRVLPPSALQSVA

inhibition at 1 µM (FLT3): 0%
inhibition at 1 µM (SGK3): 0%
inhibition at 1 µM (FYN): 0%
inhibition at 1 µM (FAK): 1%
inhibition at 1 µM (CDK1/Cyclin B): 0%
inhibition at 1 µM (FGFR1): 0%
inhibition at 1 µM (ABL1): 0%
inhibition at 1 µM (EGFR): 0%
inhibition at 1 µM (SRC): 0%
inhibition at 1 µM (VEGFR2): 0%
inhibition at 1 µM (P38-γ): 0%
inhibition at 1 µM (DDR1): 0%
inhibition at 1 µM (TRKB): 0%
inhibition at 1 µM (EPHA1): 0%
inhibition at 1 µM (LYN): 0%
inhibition at 1 µM (Aurora A): 0%
inhibition at 1 µM (MET): 0%
inhibition at 1 µM (SYK): 0%
inhibition at 1 µM (PIM1): 0%
inhibition at 1 µM (TIE1): 0%
inhibition at 1 µM (INSR): 0%
inhibition at 1 µM (YES1): 0%
inhibition at 1 µM (IKK-ε): 0%
inhibition at 1 µM (PDGFR-β): 0%
inhibition at 1 µM (PAK1): 0%
inhibition at 1 µM (PLK4): 0%
inhibition at 1 µM (PKC-α): 25%
inhibition at 1 µM (RPS6KA4): 0%
inhibition at 1 µM (IGF1R): 0%
inhibition at 1 µM (Aurora B): 0%
inhibition at 1 µM (AKT-1): 22%
inhibition at 1 µM (HER2): 0%
SMILES: O=c1c2ccccc2[se]n1-c1ccccc1 [Ebselen, reference compound]
